In ChEMBL document CHEMBL1909046, “DrugMatrix in vitro pharmacology data”:
pIC50, pKi: −log10 of the molar value.

Legend:
D(3) dopamine receptor = D(3) dopamine receptor (Homo sapiens, UniProt P35462); assay: DRUGMATRIX: Dopamine D3 radioligand binding (ligand: [3H] Spiperone); format: cell membranes, CHO, Membrane; conditions: for IC50: cho; for pIC50: read-out: IC50; for pKi: read-out: Ki
Nitric oxide synthase 1 = Nitric oxide synthase 1 (Rattus norvegicus, UniProt P29476); format: tissue-based, Cerebellum; further: in other assays of this panel Not Active means under 50% inhibition at 10 µM
Sequence of Nitric oxide synthase 1 (P29476 whole entry): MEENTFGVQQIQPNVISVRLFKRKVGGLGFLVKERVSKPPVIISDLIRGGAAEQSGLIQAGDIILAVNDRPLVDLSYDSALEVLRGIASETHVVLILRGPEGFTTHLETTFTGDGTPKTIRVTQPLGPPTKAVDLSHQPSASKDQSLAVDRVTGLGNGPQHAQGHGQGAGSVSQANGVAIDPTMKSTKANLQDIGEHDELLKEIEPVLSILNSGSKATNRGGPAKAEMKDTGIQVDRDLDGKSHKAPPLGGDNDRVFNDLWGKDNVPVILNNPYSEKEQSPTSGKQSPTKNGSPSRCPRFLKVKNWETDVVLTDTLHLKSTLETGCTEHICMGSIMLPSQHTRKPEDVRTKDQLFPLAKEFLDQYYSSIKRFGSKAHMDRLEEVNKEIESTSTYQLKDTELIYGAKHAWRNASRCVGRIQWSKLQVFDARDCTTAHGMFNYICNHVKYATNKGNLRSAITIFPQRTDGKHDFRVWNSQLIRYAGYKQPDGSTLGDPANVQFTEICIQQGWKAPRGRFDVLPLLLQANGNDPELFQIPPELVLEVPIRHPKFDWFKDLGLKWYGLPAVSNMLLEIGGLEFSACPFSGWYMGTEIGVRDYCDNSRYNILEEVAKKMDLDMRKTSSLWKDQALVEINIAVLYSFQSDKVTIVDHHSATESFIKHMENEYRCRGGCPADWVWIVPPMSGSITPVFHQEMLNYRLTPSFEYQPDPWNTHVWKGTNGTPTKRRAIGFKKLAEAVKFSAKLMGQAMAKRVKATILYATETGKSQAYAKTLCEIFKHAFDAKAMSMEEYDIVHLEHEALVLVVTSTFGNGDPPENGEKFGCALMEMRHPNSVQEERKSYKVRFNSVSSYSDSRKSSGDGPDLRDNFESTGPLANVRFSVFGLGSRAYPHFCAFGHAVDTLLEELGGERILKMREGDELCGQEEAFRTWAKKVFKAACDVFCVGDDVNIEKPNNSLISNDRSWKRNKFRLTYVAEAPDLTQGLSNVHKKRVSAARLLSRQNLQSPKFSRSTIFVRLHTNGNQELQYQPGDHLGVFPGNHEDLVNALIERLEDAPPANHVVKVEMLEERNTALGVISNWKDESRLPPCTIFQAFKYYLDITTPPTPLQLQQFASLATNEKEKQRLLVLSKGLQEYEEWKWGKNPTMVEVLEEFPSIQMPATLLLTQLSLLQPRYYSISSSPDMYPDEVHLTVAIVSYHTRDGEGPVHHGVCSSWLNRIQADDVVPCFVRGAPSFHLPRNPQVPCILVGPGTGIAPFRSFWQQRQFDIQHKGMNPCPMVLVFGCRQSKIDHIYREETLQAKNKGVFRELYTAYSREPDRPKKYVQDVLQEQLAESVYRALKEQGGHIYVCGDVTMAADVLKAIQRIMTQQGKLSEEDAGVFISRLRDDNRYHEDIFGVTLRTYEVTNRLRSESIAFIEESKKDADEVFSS

[1] = biological target: T1, Receptor-type tyrosine-protein phosphatase C (Homo sapiens, UniProt P08575); parameters: species or system Escherichia coli;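 further: inhibition of CD45 enzyme activity measured using DiFMUP as substrate; in other assays of this panel Not Active means under 50% inhibition at 10 µM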
T1 sequence (P08575 whole entry): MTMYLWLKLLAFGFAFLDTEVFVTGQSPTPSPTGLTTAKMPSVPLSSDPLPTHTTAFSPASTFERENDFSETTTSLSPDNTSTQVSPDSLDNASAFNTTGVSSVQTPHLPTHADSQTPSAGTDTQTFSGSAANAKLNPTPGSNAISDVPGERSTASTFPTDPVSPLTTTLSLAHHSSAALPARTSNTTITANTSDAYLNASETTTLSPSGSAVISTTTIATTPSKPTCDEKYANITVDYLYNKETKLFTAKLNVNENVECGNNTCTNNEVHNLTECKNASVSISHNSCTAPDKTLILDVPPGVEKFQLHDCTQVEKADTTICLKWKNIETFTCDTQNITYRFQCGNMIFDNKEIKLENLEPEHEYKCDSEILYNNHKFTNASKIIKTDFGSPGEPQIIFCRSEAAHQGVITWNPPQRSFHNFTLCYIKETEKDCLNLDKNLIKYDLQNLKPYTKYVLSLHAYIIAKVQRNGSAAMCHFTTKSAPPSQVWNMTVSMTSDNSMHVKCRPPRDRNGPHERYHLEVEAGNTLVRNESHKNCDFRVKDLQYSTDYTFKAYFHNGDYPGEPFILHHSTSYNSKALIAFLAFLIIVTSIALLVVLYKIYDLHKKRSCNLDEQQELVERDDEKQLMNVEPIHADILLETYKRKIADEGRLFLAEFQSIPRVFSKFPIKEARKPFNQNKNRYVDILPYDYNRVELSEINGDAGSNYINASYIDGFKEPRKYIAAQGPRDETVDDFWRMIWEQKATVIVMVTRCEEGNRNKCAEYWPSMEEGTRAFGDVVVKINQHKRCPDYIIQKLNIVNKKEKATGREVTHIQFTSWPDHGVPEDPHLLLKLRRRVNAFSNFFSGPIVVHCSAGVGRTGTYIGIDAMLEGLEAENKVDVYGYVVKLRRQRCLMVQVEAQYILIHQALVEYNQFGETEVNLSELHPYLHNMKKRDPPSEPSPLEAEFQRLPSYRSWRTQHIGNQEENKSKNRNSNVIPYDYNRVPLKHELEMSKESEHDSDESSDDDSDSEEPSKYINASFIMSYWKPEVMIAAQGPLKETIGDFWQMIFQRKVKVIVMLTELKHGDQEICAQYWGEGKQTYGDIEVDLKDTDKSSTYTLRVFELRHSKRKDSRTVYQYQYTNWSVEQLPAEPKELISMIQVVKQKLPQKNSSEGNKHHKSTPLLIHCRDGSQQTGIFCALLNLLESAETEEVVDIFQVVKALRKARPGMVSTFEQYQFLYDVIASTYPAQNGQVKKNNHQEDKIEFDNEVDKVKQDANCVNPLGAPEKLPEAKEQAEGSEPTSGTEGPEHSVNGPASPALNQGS

Cathepsin G = biological target: T2, Cathepsin G (Homo sapiens, UniProt P08311); format: tissue-based; conditions: neutrophil;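 further: inhibition of Cathepsin G enzyme activity, tested on an AMC-conjugated peptide substrate; in other assays of this panel Not Active means under 50% inhibition at 10 µM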
T2 sequence (P08311 whole entry): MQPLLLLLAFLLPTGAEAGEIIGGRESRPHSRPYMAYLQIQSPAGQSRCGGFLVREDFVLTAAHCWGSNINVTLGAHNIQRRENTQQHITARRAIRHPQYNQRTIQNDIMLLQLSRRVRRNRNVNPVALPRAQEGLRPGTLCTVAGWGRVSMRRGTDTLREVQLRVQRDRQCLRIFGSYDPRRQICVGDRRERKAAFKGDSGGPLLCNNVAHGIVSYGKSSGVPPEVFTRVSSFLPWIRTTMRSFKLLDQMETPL

Cytochrome P450 2D6 = Cytochrome P450 2D6 (Homo sapiens, UniProt P10635); conditions: bti-tn-5b1-4; further: in other assays of this panel Not Active means under 50% inhibition at 10 µM
Sequence of Cytochrome P450 2D6 (P10635 whole entry): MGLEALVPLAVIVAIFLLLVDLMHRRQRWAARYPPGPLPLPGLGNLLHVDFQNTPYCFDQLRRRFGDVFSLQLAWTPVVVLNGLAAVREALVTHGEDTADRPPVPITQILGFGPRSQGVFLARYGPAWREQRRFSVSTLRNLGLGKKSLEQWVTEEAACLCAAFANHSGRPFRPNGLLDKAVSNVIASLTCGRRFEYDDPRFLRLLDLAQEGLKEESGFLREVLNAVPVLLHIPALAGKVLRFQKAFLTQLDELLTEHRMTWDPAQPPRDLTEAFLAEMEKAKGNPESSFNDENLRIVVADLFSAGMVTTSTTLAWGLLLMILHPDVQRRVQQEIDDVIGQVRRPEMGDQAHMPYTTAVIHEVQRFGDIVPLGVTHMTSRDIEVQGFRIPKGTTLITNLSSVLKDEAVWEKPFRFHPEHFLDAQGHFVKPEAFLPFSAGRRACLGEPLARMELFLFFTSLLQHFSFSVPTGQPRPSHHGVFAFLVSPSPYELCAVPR

Calcitonin receptor = biological target: T3, Calcitonin receptor (Homo sapiens, UniProt P30988); format: cell membranes, Membrane; conditions: t47d; further: in other assays of this panel Not Active means under 50% inhibition at 10 µM
T3 sequence (P30988 whole entry): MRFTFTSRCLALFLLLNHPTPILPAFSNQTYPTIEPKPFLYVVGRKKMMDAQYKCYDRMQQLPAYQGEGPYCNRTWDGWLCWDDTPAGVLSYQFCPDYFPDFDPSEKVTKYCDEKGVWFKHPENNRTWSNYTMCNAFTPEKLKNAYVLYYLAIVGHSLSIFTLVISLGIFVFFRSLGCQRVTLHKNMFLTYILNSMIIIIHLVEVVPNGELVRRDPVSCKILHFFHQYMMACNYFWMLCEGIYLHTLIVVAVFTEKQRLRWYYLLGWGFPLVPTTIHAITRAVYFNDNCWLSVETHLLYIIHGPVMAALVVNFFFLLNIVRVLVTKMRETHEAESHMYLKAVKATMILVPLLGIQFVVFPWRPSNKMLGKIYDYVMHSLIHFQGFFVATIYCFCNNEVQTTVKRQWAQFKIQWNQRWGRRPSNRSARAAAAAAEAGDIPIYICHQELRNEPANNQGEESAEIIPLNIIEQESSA

[2] = biological target: T4, C-X-C chemokine receptor type 2 (Homo sapiens, UniProt P25025); format: cell membranes, Membrane; conditions: cho-k1; further: in other assays of this panel Not Active means under 50% inhibition at 10 µM
T4 sequence (P25025 whole entry): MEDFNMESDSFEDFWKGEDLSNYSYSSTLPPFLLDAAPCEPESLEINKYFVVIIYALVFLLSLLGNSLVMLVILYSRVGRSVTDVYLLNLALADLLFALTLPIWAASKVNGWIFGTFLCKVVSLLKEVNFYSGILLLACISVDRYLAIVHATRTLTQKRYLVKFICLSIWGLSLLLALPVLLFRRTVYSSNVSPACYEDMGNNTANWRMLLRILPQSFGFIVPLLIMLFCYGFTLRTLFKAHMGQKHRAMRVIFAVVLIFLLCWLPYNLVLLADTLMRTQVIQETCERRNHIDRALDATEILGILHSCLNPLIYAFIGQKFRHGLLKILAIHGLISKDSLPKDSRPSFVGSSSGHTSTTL

[3] = DRUGMATRIX: Glutamate, NMDA, Phencyclidine radioligand binding (ligand: [3H] TCP); format: cell membranes, Rattus norvegicus, Wistar, Cerebral cortex, Membrane; conditions: Not Active = under 50% inhibition at 10 µM

Sequence of D(3) dopamine receptor (P35462 whole entry): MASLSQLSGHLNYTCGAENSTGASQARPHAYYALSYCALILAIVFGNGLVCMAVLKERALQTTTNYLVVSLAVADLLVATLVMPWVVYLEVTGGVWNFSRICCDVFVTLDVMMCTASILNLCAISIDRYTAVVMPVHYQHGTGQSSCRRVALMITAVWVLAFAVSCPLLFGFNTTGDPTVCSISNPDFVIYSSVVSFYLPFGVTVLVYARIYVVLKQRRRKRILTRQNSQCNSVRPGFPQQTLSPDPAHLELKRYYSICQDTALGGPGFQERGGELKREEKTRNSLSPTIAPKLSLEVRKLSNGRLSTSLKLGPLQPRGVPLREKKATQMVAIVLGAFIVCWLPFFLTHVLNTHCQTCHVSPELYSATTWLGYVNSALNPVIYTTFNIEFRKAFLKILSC

O=C(Oc1ccccc1C(=O)O)c1ccccc1O [SALSALATE]
Not Active: IC50 (D(3) dopamine receptor) | IC50 (Nitric oxide synthase 1) | IC50 [1] | IC50 (Cathepsin G) | IC50 (Cytochrome P450 2D6) | Ki (Cytochrome P450 2D6) | IC50 (Calcitonin receptor) | IC50 [2] | IC50 [3] | Ki [3]

CNC1(c2ccccc2Cl)CCCCC1=O (stereo not drawn) [KETAMINE]
6.00: pIC50 ([3]; read-out: IC50)
Not Active: IC50 (D(3) dopamine receptor) | IC50 (Nitric oxide synthase 1) | IC50 [1] | IC50 (Cathepsin G) | IC50 (Cytochrome P450 2D6) | Ki (Cytochrome P450 2D6) | IC50 (Calcitonin receptor) | IC50 [2]
6.16: pKi ([3]; read-out: Ki)

Fc1ccc(C(c2ccc(F)cc2)N2CCN(C/C=C/c3ccccc3)CC2)cc1 [FLUNARIZINE]
Not Active: IC50 (Nitric oxide synthase 1) | IC50 [1] | IC50 (Cathepsin G) | IC50 (Cytochrome P450 2D6) | Ki (Cytochrome P450 2D6) | IC50 (Calcitonin receptor) | IC50 [2]
7.48: pKi (D(3) dopamine receptor)
7.01: pIC50 (D(3) dopamine receptor)

CN[C@H]1CC[C@@H](c2ccc(Cl)c(Cl)c2)c2ccccc21 [SERTRALINE]
Not Active: IC50 (D(3) dopamine receptor) | IC50 (Nitric oxide synthase 1) | IC50 [1] | IC50 (Cathepsin G) | IC50 (Cytochrome P450 2D6) | Ki (Cytochrome P450 2D6) | IC50 (Calcitonin receptor) | IC50 [2]

O=C(Nc1ccc(Br)cc1)c1cc(Br)cc(Br)c1O [TRIBROMSALAN]
Not Active: IC50 (D(3) dopamine receptor) | IC50 (Nitric oxide synthase 1) | IC50 [1] | IC50 (Cathepsin G) | IC50 (Cytochrome P450 2D6) | Ki (Cytochrome P450 2D6) | IC50 (Calcitonin receptor) | IC50 [2] | IC50 [3] | Ki [3]

CC(C)NCC(O)c1ccc(O)c(O)c1 (stereo not drawn) [ISOPROTERENOL]
Not Active: IC50 (D(3) dopamine receptor) | IC50 (Nitric oxide synthase 1) | IC50 [1] | IC50 (Cathepsin G) | IC50 (Cytochrome P450 2D6) | Ki (Cytochrome P450 2D6) | IC50 (Calcitonin receptor) | IC50 [2] | IC50 [3] | Ki [3]

Clc1ccc(COC(Cn2ccnc2)c2ccc(Cl)cc2Cl)cc1 (stereo not drawn) [ECONAZOLE]
Not Active: IC50 (Nitric oxide synthase 1) | IC50 [1] | IC50 (Cathepsin G) | IC50 (Calcitonin receptor) | IC50 [2]

COc1ccc(CCN(C)CCCC(C#N)(c2ccc(OC)c(OC)c2)C(C)C)cc1OC (stereo not drawn)
Not Active: IC50 (Nitric oxide synthase 1) | IC50 [1] | IC50 (Cathepsin G) | IC50 (Cytochrome P450 2D6) | Ki (Cytochrome P450 2D6) | IC50 (Calcitonin receptor) | IC50 [2] | IC50 [3] | Ki [3]

CCN(CC)CCOc1ccc(/C(=C(/Cl)c2ccccc2)c2ccccc2)cc1 [ENCLOMIPHENE]
Not Active: IC50 (Nitric oxide synthase 1) | IC50 [1] | IC50 (Cathepsin G) | IC50 (Calcitonin receptor) | IC50 [2]

Clc1ccccc1CN1CCc2sccc2C1 [TICLOPIDINE]
Not Active: IC50 (D(3) dopamine receptor) | IC50 (Nitric oxide synthase 1) | IC50 [1] | IC50 (Cathepsin G) | IC50 (Calcitonin receptor) | IC50 [2] | IC50 [3] | Ki [3]

C[C@H]1C[C@@H]2[C@H]([C@@H](O)C[C@@]3(C)[C@H]2CC[C@]3(O)C(=O)CO)[C@@]2(C)C=CC(=O)C=C12 [METHYLPREDNISOLONE]
Not Active: IC50 (D(3) dopamine receptor) | IC50 (Nitric oxide synthase 1) | IC50 [1] | IC50 (Cathepsin G) | IC50 (Calcitonin receptor) | IC50 [2] | IC50 [3] | Ki [3]

Cc1c(C)c2c(c(C)c1O)CCC(C)(CN1CCN(c3cc(N4CCCC4)nc(N4CCCC4)n3)CC1)O2 (stereo not drawn)
5.28: pIC50 (D(3) dopamine receptor)
5.75: pKi (D(3) dopamine receptor)
Not Active: IC50 (Nitric oxide synthase 1) | IC50 [1] | IC50 (Cathepsin G) | IC50 (Calcitonin receptor) | IC50 [2] | IC50 [3] | Ki [3]

CN(C)CCOC(c1ccccc1)c1ccccc1 [DIPHENHYDRAMINE]
Not Active: IC50 (D(3) dopamine receptor) | IC50 (Nitric oxide synthase 1) | IC50 [1] | IC50 (Cathepsin G) | IC50 (Calcitonin receptor) | IC50 [2]

CCN1CCC[C@H]1CNC(=O)c1cc(S(N)(=O)=O)ccc1OC [LEVOSULPIRIDE]
Not Active: IC50 (Nitric oxide synthase 1) | IC50 [1] | IC50 (Cathepsin G) | IC50 (Cytochrome P450 2D6) | Ki (Cytochrome P450 2D6) | IC50 (Calcitonin receptor) | IC50 [2] | IC50 [3] | Ki [3]

CCN(CC)CC(=O)Nc1c(C)cccc1C [LIDOCAINE]
Not Active: IC50 (D(3) dopamine receptor) | IC50 (Nitric oxide synthase 1) | IC50 [1] | IC50 (Cathepsin G) | IC50 (Calcitonin receptor) | IC50 [2] | IC50 [3] | Ki [3]

CCCCNc1ccc(C(=O)OCCN(C)C)cc1 [TETRACAINE]
Not Active: IC50 (D(3) dopamine receptor) | IC50 (Nitric oxide synthase 1) | IC50 [1] | IC50 (Cathepsin G) | IC50 (Calcitonin receptor) | IC50 [2] | IC50 [3] | Ki [3]

CNCCC(Oc1ccc(C(F)(F)F)cc1)c1ccccc1 (stereo not drawn) [FLUOXETINE]
Not Active: IC50 (D(3) dopamine receptor) | IC50 (Nitric oxide synthase 1) | IC50 [1] | IC50 (Cathepsin G) | IC50 (Calcitonin receptor) | IC50 [2]

Cc1ccc(NC(=O)c2ccc(CN3CCN(C)CC3)cc2)cc1Nc1nccc(-c2cccnc2)n1 [IMATINIB]
Not Active: IC50 (D(3) dopamine receptor) | IC50 (Nitric oxide synthase 1) | IC50 [1] | IC50 (Cathepsin G) | IC50 (Cytochrome P450 2D6) | Ki (Cytochrome P450 2D6) | IC50 (Calcitonin receptor) | IC50 [2]

CO[C@@H]1[C@@H](OC)[C@H](C)[C@@](O)(CC(=O)O)O[C@H]1[C@H](C)[C@H]1O[C@@]2(CC[C@@](C)([C@H]3CC[C@@](C)([C@@H]4O[C@@H]([C@H]5O[C@](C)(O)[C@H](C)C[C@@H]5C)C[C@@H]4O[C@@H]4C[C@H](OC)[C@@H](OC)[C@H](C)O4)O3)O2)C[C@H](O)[C@H]1C [MADURAMICIN ACID]
Not Active: IC50 (Nitric oxide synthase 1) | IC50 [1] | IC50 (Cathepsin G) | IC50 (Calcitonin receptor) | IC50 [2] | IC50 [3] | Ki [3]
8.03: pKi (D(3) dopamine receptor)
7.57: pIC50 (D(3) dopamine receptor)

CN(C/C=C/C#CC(C)(C)C)Cc1cccc2ccccc12 [TERBINAFINE]
Not Active: IC50 (D(3) dopamine receptor) | IC50 (Nitric oxide synthase 1) | IC50 [1] | IC50 (Cathepsin G) | IC50 (Calcitonin receptor) | IC50 [2] | IC50 [3] | Ki [3]
